Laboratory results from patent US10189839B2, “Tricyclic imidazole compounds as inhibitors of tryptophan hydroxylase” (ACTELION PHARMACEUTICALS LTD, priority 2013, dated 2019).

Biological target: T1, full length human TPH1 (Homo sapiens, UniProt P17752)
T1 construct: To generate the enzyme, full length human TPH1 is cloned into the plasmid pET20b(+); made in house; host or cells: E. coli
T1 sequence (P17752 1-444): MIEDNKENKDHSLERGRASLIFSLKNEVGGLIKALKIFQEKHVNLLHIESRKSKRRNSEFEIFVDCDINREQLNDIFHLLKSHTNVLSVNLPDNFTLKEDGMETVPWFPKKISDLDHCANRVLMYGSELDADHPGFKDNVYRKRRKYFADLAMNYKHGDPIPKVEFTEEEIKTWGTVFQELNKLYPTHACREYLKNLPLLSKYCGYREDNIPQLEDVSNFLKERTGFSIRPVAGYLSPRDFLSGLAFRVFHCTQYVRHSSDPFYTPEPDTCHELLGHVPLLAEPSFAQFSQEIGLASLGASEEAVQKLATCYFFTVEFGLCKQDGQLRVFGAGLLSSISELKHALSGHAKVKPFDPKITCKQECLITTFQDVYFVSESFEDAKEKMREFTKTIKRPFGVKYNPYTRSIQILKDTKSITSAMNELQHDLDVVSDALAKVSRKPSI
Test: Biochemical in vitro assay using fluorescence readout (TPH1 enzyme activity)
Conditions: Table 1, mean where determined several times
Method in brief: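 IC50 (mean of repeats) derived from 5-hydroxy-L-tryptophan fluorescence at 540 nm (300 nm excitation) relative to vehicle, after perchloric acid stop. Reaction: 60 min, 15° C., pH 7.6 Tris-HCl, 40 μM L-tryptophan, 100 μM 6-methyltetrahydropterine, DTT, catalase, with 40-80 nM purified full-length human TPH1 from E. coli.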

Structure (SMILES) | IC50 [nM]
CCc1nc(C)c(C2c3c(nc4n3CCCC4)CCN2C(=O)COc2ccc(NS(C)(=O)=O)nc2Cl)s1 (stereo not shown) [Example 1.11.1, N-(6-chloro-5-(2-(1-(2-ethyl-4-methylthiazol-5-yl)-3,4,6,7,8,9-hexahydroimidazo[1,2-a:5,4-c′]dipyridin-2(1H)-yl)-2-oxoethoxy)pyridin-2-yl)methanesulfonamide] | 49
Cc1nc(C(C)C)sc1C1c2c(nc3n2CCCC3)CCN1C(=O)COc1ccc(NS(C)(=O)=O)nc1Cl (stereo not shown) [Example 1.12.1, N-(6-chloro-5-(2-(1-(2-isopropyl-4-methylthiazol-5-yl)-3,4,6,7,8,9-hexahydroimidazo[1,2-a:5,4-c′]dipyridin-2(1H)-yl)-2-oxoethoxy)pyridin-2-yl)methanesulfonamide] | 819
CCc1nc(NS(C)(=O)=O)ccc1OCC(=O)N1CCc2nc3n(c2C1c1scnc1C)CCCC3 (stereo not shown) [Example 1.13.1, N-(6-ethyl-5-(2-(1-(4-methylthiazol-5-yl)-3,4,6,7,8,9-hexahydroimidazo[1,2-a:5,4-c′]dipyridin-2(1H)-yl)-2-oxoethoxy)pyridin-2-yl)methanesulfonamide207] | 44
CCc1nc(N2CCCS2(=O)=O)ccc1OCC(=O)N1CCc2nc3n(c2C1c1scnc1C)CCCC3 (stereo not shown) [Example 1.13.2, 2-((6-(1,1-dioxidoisothiazoli132din-2-yl)-2-ethylpyridin-3-yl)oxy)-1-(1-(4-methylthiazol-5-yl)-3,4,6,7,8,9-hexahydroimidazo[1,2-a:5,4-c′]dipyridin-2(1H)-yl)ethanone] | 15
CCc1nc(NS(C)(=O)=O)ccc1OCC(=O)N1CCc2nc3n(c2C1c1sccc1F)CCCC3 (stereo not shown) [Example 1.14.1, N-(6-ethyl-5-(2-(1-(3-fluorothiophen-2-yl)-3,4,6,7,8,9-hexahydroimidazo[1,2-a:5,4-c′]dipyridin-2(1H)-yl)-2-oxoethoxy)pyridin-2-yl)methanesulfonamide] | 16
CCc1nc(C(=O)NC2CC2)ccc1OCC(=O)N1CCc2nc3n(c2C1c1sccc1F)CCCC3 (stereo not shown) [Example 1.14.2, N-cyclopropyl-6-ethyl-5-(2-(1-(3-fluorothiophen-2-yl)-3,4,6,7,8,9-hexahydroimidazo[1,2-a:5,4-c′]dipyridin-2(1H)-yl)-2-oxoethoxy)picolinamide] | 12
CCc1nc(NS(C)(=O)=O)ccc1OCC(=O)N1CCc2nc3n(c2C1c1cnc(C)s1)CCCC3 (stereo not shown) [Example 1.15.1, N-(6-ethyl-5-(2-(1-(2-methylthiazol-5-yl)-3,4,6,7,8,9-hexahydroimidazo[1,2-a:5,4-c′]dipyridin-2(1H)-yl)-2-oxoethoxy)pyridin-2-yl)methanesulfonamide] | 36
CCc1nc(N2CCCS2(=O)=O)ccc1OCC(=O)N1CCc2nc3n(c2C1c1cnc(C)s1)CCCC3 (stereo not shown) [Example 1.15.2, 2-((6-(1,1-dioxidoisothiazolidin-2-yl)-2-ethylpyridin-3-yl)oxy)-1-(1-(2-methylthiazol-5-yl)-3,4,6,7,8,9-hexahydroimidazo[1,2-a:5,4-c′]dipyridin-2(1H)-yl)ethanone] | 27
CCc1nc(NS(C)(=O)=O)ccc1OCC(=O)N1CCc2nc3n(c2C1c1cnc(-c2ccccc2)s1)CCCC3 (stereo not shown) [Example 1.16.1, N-(6-ethyl-5-(2-oxo-2-(1-(2-phenylthiazol-5-yl)-3,4,6,7,8,9-hexahydroimidazo[1,2-a:5,4-c′]dipyridin-2(1H)-yl)ethoxy)pyridin-2-yl)methanesulfonamide] | 225
CCc1nc(NS(C)(=O)=O)ccc1OCC(=O)N1CCc2nc3n(c2C1c1nc(-c2ccccc2)no1)CCCC3 (stereo not shown) [Example 1.17.1, N-(6-ethyl-5-(2-oxo-2-(1-(3-phenyl-1,2,4-oxadiazol-5-yl)-3,4,6,7,8,9-hexahydroimidazo[1,2-a:5,4-c′]dipyridin-2(1H)-yl)ethoxy)pyridin-2-yl)methanesulfonamide] | 79
